# Molecular target: T1, recombinant human plasminogen activator inhibitor-1 (PAI-1) (Homo sapiens, UniProt P05121)
# T1 construct: purchased Molecular Innovations, Royal Oak, Mich
# Assay: Screening for PAI-1 inhibition (residual tPA activity, Spectrozyme-tPA chromogenic substrate)
# Assay type: biochemical
# Conditions: test compound at 100 Um; pH 6.6 buffer, 140 nM PAI-1, 70 nM tPA
# Procedure, shortened: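 PAI-1 at 140 nM, pH 6.6 buffer, preincubated 1 h at room temperature with compound (1-100 μM final, ≤0.2% DMSO), then 70 nM tPA added for 30 min. Residual tPA activity read by Spectrozyme-tPA absorbance at 405 nm at 0 and 60 min. Inhibition taken as residual tPA activity.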
# T1 sequence (P05121 24-402): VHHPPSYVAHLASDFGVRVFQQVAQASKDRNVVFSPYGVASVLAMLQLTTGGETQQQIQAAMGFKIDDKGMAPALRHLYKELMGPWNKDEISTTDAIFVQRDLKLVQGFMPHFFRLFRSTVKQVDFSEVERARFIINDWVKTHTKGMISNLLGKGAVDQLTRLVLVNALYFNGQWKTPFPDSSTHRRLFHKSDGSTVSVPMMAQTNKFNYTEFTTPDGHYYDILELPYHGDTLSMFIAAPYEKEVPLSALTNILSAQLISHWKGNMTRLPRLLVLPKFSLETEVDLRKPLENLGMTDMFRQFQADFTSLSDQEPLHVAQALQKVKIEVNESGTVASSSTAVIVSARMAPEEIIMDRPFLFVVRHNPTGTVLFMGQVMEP
row,Compound,inhibition at 100 µM [%]
1,"Cc1cccc(COc2ccc(/C=N/OCC(=O)O)c(OCc3cccc(C)c3)c2)c1 [Compound 129, {[((1E)-{2,4-bis[(3-methylbenzyl)oxy]phenyl}methylidene)amino]oxy}acetic acid]",90
2,"O=C(O)CO/N=C/c1ccc(OCc2cccc(C(F)(F)F)c2)cc1OCc1cccc(C(F)(F)F)c1 [Compound 130, ({[(1E)-(2,4-bis{[3-(trifluoromethyl)benzyl]oxy}phenyl)methylidene]amino}oxy)acetic acid]",91
3,"O=C(O)CO/N=C/c1ccc(OCc2ccc(F)c(F)c2)cc1OCc1ccc(F)c(F)c1 [Compound 131, {[((1E)-{2,4-bis[(3,4-difluorobenzyl)oxy]phenyl}methylidene)amino]oxy}acetic acid]",88
4,"O=C(O)CO/N=C/c1cccc(OCc2ccc(Br)cc2)c1OCc1ccc(Br)cc1 [Compound 132, {[((1E)-{2,3-bis[(4-bromobenzyl)oxy]phenyl}methylidene)amino]oxy}acetic acid]",65
5,"O=C(O)CO/N=C/c1cccc(OCc2ccc(F)cc2)c1OCc1ccc(F)cc1 [Compound 133, {[((1E)-{2,3-bis[(4-fluorobenzyl)oxy]phenyl}methylidene)amino]oxy}acetic acid]",20
6,"O=C(O)CO/N=C/c1cccc(OCc2ccc(C(F)(F)F)cc2)c1OCc1ccc(C(F)(F)F)cc1 [Compound 134, ({[(1E)-(2,3-bis{[4-(trifluoromethyl)benzyl]oxy}phenyl)methylidene]amino}oxy)acetic acid]",100
7,"CC(C)(C)c1ccc(COc2cccc(/C=N/OCC(=O)O)c2OCc2ccc(C(C)(C)C)cc2)cc1 [Compound 135, {[((1E)-{2,3-bis[(4-tert-butylbenzyl)oxy]phenyl}methylidene)amino]oxy}acetic acid]",58
8,"O=C(O)CO/N=C/c1cccc(OCc2cccc(Cl)c2)c1OCc1cccc(Cl)c1 [Compound 136, {[((1E)-{2,3-bis[(3-chlorobenzyl)oxy]phenyl}methylidene)amino]oxy}acetic acid]",80
9,"O=C(O)CO/N=C/c1cccc(OCc2cccc(Br)c2)c1OCc1cccc(Br)c1 [Compound 137, {[((1E)-{2,3-bis[(3-bromobenzyl)oxy]phenyl}methylidene)amino]oxy}acetic acid]",79
10,"Cc1cccc(COc2cccc(/C=N/OCC(=O)O)c2OCc2cccc(C)c2)c1 [Compound 138, {[((1E)-{2,3-bis[(3-methylbenzyl)oxy]phenyl}methylidene)amino]oxy}acetic acid]",88
11,"O=C(O)CO/N=C/c1cccc(OCc2cccc(C(F)(F)F)c2)c1OCc1cccc(C(F)(F)F)c1 [Compound 139, ({[(1E)-(2,3-bis{[3-(trifluoromethyl)benzyl]oxy}phenyl)methylidene]amino}oxy)acetic acid]",90
12,"Cc1ccc(COc2cccc(/C=N/OCC(=O)O)c2OCc2ccc(C)cc2)cc1 [Compound 140, {[((1E)-{2,3-bis[(4-methylbenzyl)oxy]phenyl}methylidene)amino]oxy}acetic acid]",94
13,"O=C(O)CO/N=C/c1cccc(OCc2ccc(F)c(F)c2)c1OCc1ccc(F)c(F)c1 [Compound 141, {[((1E)-{2,3-bis[(3,4-difluorobenzyl)oxy]phenyl}methylidene)amino]oxy}acetic acid]",48
14,"O=C(O)CO/N=C/c1cc(OCc2cccc(Cl)c2)cc(OCc2cccc(Cl)c2)c1 [Compound 142, {[((1E)-{3,5-bis[(3-chlorobenzyl)oxy]phenyl}methylidene)amino]oxy}acetic acid]",86
15,"O=C(O)CO/N=C/c1cc(OCc2ccc(F)cc2)cc(OCc2ccc(F)cc2)c1 [Compound 143, {[((1E)-{3,5-bis[(4-fluorobenzyl)oxy]phenyl}methylidene)amino]oxy}acetic acid]",95
16,"O=C(O)CO/N=C/c1cc(OCc2ccc(C(F)(F)F)cc2)cc(OCc2ccc(C(F)(F)F)cc2)c1 [Compound 144, ({[(1E)-(3,5-bis{[4-(trifluoromethyl)benzyl]oxy}phenyl)methylidene]amino}oxy)acetic acid]",93
17,"O=C(O)CO/N=C/c1cc(OCc2ccc(Br)cc2)cc(OCc2ccc(Br)cc2)c1 [Compound 145, {[((1E)-{3,5-bis[(4-bromobenzyl)oxy]phenyl}methylidene)amino]oxy}acetic acid]",100
18,"CC(C)(C)c1ccc(COc2cc(/C=N/OCC(=O)O)cc(OCc3ccc(C(C)(C)C)cc3)c2)cc1 [Compound 146, {[((1E)-{3,5-bis[(4-tert-butylbenzyl)oxy]phenyl}methylidene)amino]oxy}acetic acid]",49
19,"O=C(O)CO/N=C/c1cc(OCc2cccc(Br)c2)cc(OCc2cccc(Br)c2)c1 [Compound 147, {[((1E)-{3,5-bis[(3-bromobenzyl)oxy]phenyl}methylidene)amino]oxy}acetic acid]",87

row,Compound,inhibition at 100 µM [%]
1,"Cc1cccc(COc2cc(/C=N/OCC(=O)O)cc(OCc3cccc(C)c3)c2)c1 [Compound 148, {[((1E)-{3,5-bis[(3-methylbenzyl)oxy]phenyl}methylidene)amino]oxy}acetic acid]",88
2,"O=C(O)CO/N=C/c1cc(OCc2cccc(C(F)(F)F)c2)cc(OCc2cccc(C(F)(F)F)c2)c1 [Compound 149, ({[(1E)-(3,5-bis{[3-(trifluoromethyl)benzyl]oxy}phenyl)methylidene]amino}oxy)acetic acid]",91
3,"Cc1ccc(COc2cc(/C=N/OCC(=O)O)cc(OCc3ccc(C)cc3)c2)cc1 [Compound 150, {[((1E)-{3,5-bis[(4-methylbenzyl)oxy]phenyl}methylidene)amino]oxy}acetic acid]",90
4,"O=C(O)CO/N=C/c1cc(OCc2ccc(F)c(F)c2)cc(OCc2ccc(F)c(F)c2)c1 [Compound 151, {[((1E)-{3,5-bis[(3,4-difluorobenzyl)oxy]phenyl}methylidene)amino]oxy}acetic acid]",88
5,"O=C(O)CO/N=C/c1cc(OCc2cccc(C(F)(F)F)c2)ccc1OCc1cccc(C(F)(F)F)c1 [Compound 152, ({[(1E)-(2,5-bis{[3-(trifluoromethyl)benzyl]oxy}phenyl)methylidene]amino}oxy)acetic acid]",100
6,"O=C(O)CO/N=C/c1cc(OCc2ccc(F)cc2)ccc1OCc1ccc(F)cc1 [Compound 153, {[((1E)-{2,5-bis[(4-fluorobenzyl)oxy]phenyl}methylidene)amino]oxy}acetic acid]",96
7,"O=C(O)CO/N=C/c1cc(OCc2ccc(C(F)(F)F)cc2)ccc1OCc1ccc(C(F)(F)F)cc1 [Compound 154, ({[(1E)-(2,5-bis{[4-(trifluoromethyl)benzyl]oxy}phenyl)methylidene]amino}oxy)acetic acid]",91
8,"O=C(O)CO/N=C/c1cc(OCc2ccc(Br)cc2)ccc1OCc1ccc(Br)cc1 [Compound 155, {[((1E)-{2,5-bis[(4-bromobenzyl)oxy]phenyl}methylidene)amino]oxy}acetic acid]",85
9,"CC(C)(C)c1ccc(COc2ccc(OCc3ccc(C(C)(C)C)cc3)c(/C=N/OCC(=O)O)c2)cc1 [Compound 156, {[((1E)-{2,5-bis[(4-tert-butylbenzyl)oxy]phenyl}methylidene)amino]oxy}acetic acid]",99
10,"O=C(O)CO/N=C/c1cc(OCc2cccc(Cl)c2)ccc1OCc1cccc(Cl)c1 [Compound 157, {[((1E)-{2,5-bis[(3-chlorobenzyl)oxy]phenyl}methylidene)amino]oxy}acetic acid]",85
11,"O=C(O)CO/N=C/c1cc(OCc2cccc(Br)c2)ccc1OCc1cccc(Br)c1 [Compound 158, {[((1E)-{2,5-bis[(3-bromobenzyl)oxy]phenyl}methylidene)amino]oxy}acetic acid]",69
12,"Cc1cccc(COc2ccc(OCc3cccc(C)c3)c(/C=N/OCC(=O)O)c2)c1 [Compound 159, {[((1E)-{2,5-bis[(3-methylbenzyl)oxy]phenyl}methylidene)amino]oxy}acetic acid]",69
13,"Cc1ccc(COc2ccc(OCc3ccc(C)cc3)c(/C=N/OCC(=O)O)c2)cc1 [Compound 160, {[((1E)-{2,5-bis[(4-methylbenzyl)oxy]phenyl}methylidene)amino]oxy}acetic acid]",76
14,"O=C(O)CO/N=C/c1cc(OCc2ccc(F)c(F)c2)ccc1OCc1ccc(F)c(F)c1 [Compound 161, {[((1E)-{2,5-bis[(3,4-difluorobenzyl)oxy]phenyl}methylidene)amino]oxy}acetic acid]",92
15,"CC(C)(C)c1ccc(OCC#Cc2ccc(/C=N/OCC(=O)O)cc2)cc1 [Compound 162, {[((1E)-{4-[3-(4-tert-butylphenoxy)prop-1-ynyl]phenyl}methylidene)amino]oxy}acetic acid]",51
16,"O=C(O)CO/N=C/c1ccc(C#CCOc2ccc(Br)cc2)cc1 [Compound 163, {[((1E)-{4-[3-(4-bromophenoxy)prop-1-ynyl]phenyl}methylidene)amino]oxy}acetic acid]",65
17,"O=C(O)CO/N=C/c1ccc(C#CCOc2cc(C(F)(F)F)cc(C(F)(F)F)c2)cc1 [Compound 164, ({[(1E)-(4-{3-[3,5-bis(trifluoromethyl)phenoxy]prop-1-ynyl}phenyl)methylidene]amino}oxy) acetic acid]",73
18,"O=C(O)CO/N=C/c1ccc(C#CCOc2cc(Cl)cc(Cl)c2)cc1 [Compound 165, {[((1E)-{4-[3-(3,5-dichlorophenoxy)prop-1-ynyl]phenyl}methylidene)amino]oxy}acetic acid]",68
19,"O=C(O)CO/N=C/c1ccc(C#CCOc2cccc(Cl)c2)cc1 [Compound 166, {[((1E)-{4-[3-(3-chlorophenoxy)prop-1-ynyl]phenyl}methylidene)amino]oxy}acetic acid]",42

# Reference: patent publication US7411083B2, “Substituted acetic acid derivatives” (Wyeth, priority 2003, dated 2008)
